Among the data in patent EP4541796A1, “EXATECAN DERIVATIVES AND USE THEREOF” (Hangzhou Adcoris Biopharma Co., Ltd, priority 2022, dated 2024) are IC50 values, retold here.

Experiment [1] concerns esophageal cancer cells OE33. The experiment in a line: In vitro inhibitory activity of compounds (small molecule toxins), CCK-8 cell growth assay. The class given is cell-based. To be noted: Homo sapiens. The protocol:
(§1) Human esophageal cancer cells OE33, and human breast adenocarcinoma cells SK-BR-3 were cultured in RPMI1640 (Cellmax) containing 10% fetal bovine serum (Cellmax), respectively. Cells in the exponential growth phase were diluted to a concentration of 1×10^5cells/mL by culture medium and added to 96-well cell culture plates at 100µL per well, then incubated overnight in a 37°C incubator with 5% CO2. On the following day, the small molecules were diluted with culture medium to 10,000 nM, 2,000 nM, 400 nM, 80 nM, 16 nM, 3.2 nM, 0.64 nM, 0.13 nM, respectively, and the diluted compounds were added to 96-well cell culture plates at 2 µL per well, with three replicate wells set-up for each concentration, and for the negative and blank control groups, in which the compounds had not been added, 2 µL of dilution was added per well. After the addition, the plates were returned to the 37°C incubator with 5% CO2 to continue incubation for 72 h. After incubation, the cell culture plates were removed, and the culture medium was aspirated using a pipette. Then, 100µL of culture medium containing 10% CCK-8 was added to each well, and the plates were incubated at 37°C for 3 hours. After incubation, the plates were removed, kept in the dark, and placed in ELISAplate. Absorbance was measured at 630nm as the reference wavelength and 450nm as the test wavelength. The IC50 values (Tables 1-3) were calculated using the four-parameter logistic regression method in GraphPad, based on the absorbance values. DNA topoisomerase I inhibitor Dxd was used as positive control drug.
A general note: Tetrazolium assays rely on reduction of a dye to a coloured formazan, in cell work by metabolically active cells.

In experiment [2] the test system is breast adenocarcinoma cells SK-BR-3. The experiment is described as above. The class given is cell-based. The note with it: Homo sapiens; Inhibitory activity against SK-BR-3; small molecules, 72 h incubation. The procedure:
as §1

The mark [3] stands for this setting: Inhibitory activity against OE33, small molecules, 72 h incubation, read-out: IC50/nM.
The mark [4] stands for this setting: OE33 cells, read-out: IC50 values for inhibiting the growth of esophageal cancer cells.

Read-outs that look alike come from different tables or passages of the source.

For `CC[C@@]1(O)C(=O)OCc2c1cc1n(c2=O)Cc2c-1nc1cc(F)c(C)c3c1c2[C@@H](NC(=O)C(=O)N(C)N)CC3` [Compound 5, Exatecan N'-amino-N-methyloxalyldiamine], the IC50 in experiment [1] (setting [3]) is 50 to 100 nM; in experiment [2], less than 50 nM.

For `CC[C@@]1(O)C(=O)OCc2c1cc1n(c2=O)Cc2c-1nc1cc(F)c(C)c3c1c2[C@@H](NC(=O)N(C)NC)CC3` [Compound 3, Exatecan-N',N-dimethylaminourea], the IC50 in experiment [1] (setting [3]) was less than 50 nM; in experiment [1] (setting [4]), less than 10 nM; in experiment [2], less than 50 nM.

Take `CC[C@@]1(O)C(=O)OCc2c1cc1n(c2=O)Cc2c-1nc1cc(F)c(C)c3c1c2[C@@H](NC(=O)CNOC)CC3` [Compound 7, 2-methoxyaminoacetyl exatecan]: the IC50 in experiment [1] (setting [3]) was less than 50 nM; in experiment [1] (setting [4]), less than 10 nM.

In the case of `CC[C@@]1(O)C(=O)OCc2c1cc1n(c2=O)Cc2c-1nc1cc(F)c(C)c3c1c2[C@@H](NC(=O)CN(C)O)CC3` [Compound 11, 2-N-methylhydroxyaminoacetyl exatecan], the IC50 in experiment [1] (setting [3]) is 50 to 100 nM.

Take `CC[C@@]1(O)C(=O)OCc2c1cc1n(c2=O)Cc2c-1nc1cc(F)c(C)c3c1c2[C@@H](NC(=O)C(=O)NN)CC3` [Compound 4, Exatecan-N'-amino oxalyldiamine]: the IC50 in experiment [1] (setting [3]) and in experiment [2] was 50 to 100 nM each time.

As to `CC[C@@]1(O)C(=O)OCc2c1cc1n(c2=O)Cc2c-1nc1cc(F)c(C)c3c1c2[C@@H](NC(=O)CO)CC3` [Dxd, reference compound], the IC50 in experiment [1] (setting [3]) and in experiment [2] was less than 50 nM throughout.

As for `CCONCC(=O)N[C@H]1CCc2c(C)c(F)cc3nc4c(c1c23)Cn1c-4cc2c(c1=O)COC(=O)[C@]2(O)CC` [Compound 12, 2-ethoxyaminoacetyl exatecan], the IC50 in experiment [1] (setting [3]) fell in the range of 50 to 100 nM.

Take `CC[C@@]1(O)C(=O)OCc2c1cc1n(c2=O)Cc2c-1nc1cc(F)c(C)c3c1c2[C@@H](NC(=O)N(C)N)CC3` [Compound 2, Exatecan-N-methyl-N-aminourea]: the IC50 was less than 50 nM in experiment [1] (setting [3]) and less than 10 nM in experiment [1] (setting [4]).

On to `CC[C@@]1(O)C(=O)OCc2c1cc1n(c2=O)Cc2c-1nc1cc(F)c(C)c3c1c2[C@@H](NC(=O)CONC)CC3` [Compound 8, 2-methylaminooxyacetyl exatecan], for which the IC50 is less than 50 nM in experiment [1] (setting [3]), less than 10 nM in experiment [1] (setting [4]) and less than 50 nM in experiment [2].

With `CC[C@@]1(O)C(=O)OCc2c1cc1n(c2=O)Cc2c-1nc1cc(F)c(C)c3c1c2[C@@H](NC(=O)CNO)CC3` [Compound 6, 2-hydroxyaminoacetyl exatecan], the IC50 in experiment [1] (setting [3]) lay in the range of 50 to 100 nM.

Consider `CC[C@@]1(O)C(=O)OCc2c1cc1n(c2=O)Cc2c-1nc1cc(F)c(C)c3c1c2[C@@H](NC(=O)CN(C)NC)CC3` [Compound 10, 2-N-methyl-N-methylaminoacetyl exatecan], for which the IC50 in experiment [1] (setting [3]) lay within 50 to 100 nM.

As for `CC[C@@]1(O)C(=O)OCc2c1cc1n(c2=O)Cc2c-1nc1cc(F)c(C)c3c1c2[C@@H](NC(=O)C1(N)COC1)CC3` [Compound 13, 3-aminooxetane-3-acetyl exatecan], the IC50 in experiment [1] (setting [3]) is less than 50 nM; in experiment [1] (setting [4]), less than 10 nM; in experiment [2], less than 50 nM.

Turning to `CC[C@@]1(O)C(=O)OCc2c1cc1n(c2=O)Cc2c-1nc1cc(F)c(C)c3c1c2[C@@H](NC(=O)NN)CC3` [Compound 1, Exatecan-N-aminourea], the IC50 in experiment [1] (setting [3]) and in experiment [2] was 50 to 100 nM each time.

For the compound `CC[C@@]1(O)C(=O)OCc2c1cc1n(c2=O)Cc2c-1nc1cc(F)c(C)c3c1c2[C@@H](NC(=O)CN(C)N)CC3` [Compound 9, 2-N-methyl-N-aminoacetyl exatecan], the IC50 in experiment [1] (setting [3]) is less than 50 nM; in experiment [1] (setting [4]) it was less than 10 nM.
